According to ChEMBL document CHEMBL5338709, “Design, synthesis, and structure-activity relationship of TAK-418 and its derivatives as a novel series of LSD1 inhibitors with lowered risk of hematological side effects” (Eur J Med Chem, 2022):

Key:
[1] = Metabolic stability in mouse liver microsomes assessed as clearance at 1 uM incubated for 15 to 30 mins in presence of NADPH generating system by LC-MS/MS analysis; assay type: ADME, Microsome; conditions: time 15-30 min, read-out: CLH
[2] = test system: GFI1 mRNA; test: Hematological toxicity in human TF-1a cells assessed as fold increase in GFI1 mRNA expression at 10 uM incubated for 1 day by RT-qPCR analysis relative to control; assay type: cell-based; conditions: read-out: FC
[3] = molecular target: Lysine-specific histone demethylase 1A (Homo sapiens, UniProt O60341); test: Inhibition of LSD1 (unknown origin)
[4] = molecular target: LSD1/CoREST complex (Homo sapiens, UniProt O60341); test: Inhibition of recombinant human LSD1 (172 to 852 residues)/His-tagged human CoREST (286 to 482 residues) expressed in Escherichia coli BL21 (DE3) cells using ART(mK)QTARKSTGGKAPRKQLAGGK-Biotin as substrate assessed as increase in H3K4 methylation incubated for 40 mins
[5] = Toxicity in ICR mouse assessed as reduction in platelet count upto 100 mg/kg/day, po administered for 4 days; assay type: organism-based; conditions: in vivo, 96 h, time 4 day
[6] = Toxicity in ICR mouse assessed as reduction in red blood cell count upto 100 mg/kg/day, po administered for 4 days; assay type: organism-based; conditions: in vivo, 96 h, time 4 day
[7] = Toxicity in ICR mouse assessed as reduction in white blood cell count upto 100 mg/kg/day, po administered for 4 days; assay type: organism-based; conditions: in vivo, 96 h, time 4 day
[8] = test system: Mus musculus; test: Improvement of recognition memory in NR1 hypofunction mouse assessed as novelty discrimination index at 1 mg/kg, po administered once daily for 2 weeks by novel object recognition test (reference value: 51.4 +/- 3.1%); assay type: functional
[9] = test system: Mus musculus; test: Improvement of recognition memory in NR1 hypofunction mouse assessed as novelty discrimination index at 0.3 mg/kg, po administered once daily for 2 weeks by novel object recognition test (reference value: 51.4 +/- 3.1%); assay type: functional
[10] = AUC (0 to 24 hrs) in ICR mouse at 10 mg/kg, po; assay type: ADME, organism-based; parameters: dose 10 mg/kg, route po; conditions: in vivo

| SMILES | microsomal CLint at 1 µM [1] [µL/min/mg] | fold induction at 24 h, 10 µM [2] | IC50 [4] [nM] | also measured |
| --- | --- | --- | --- | --- |
| O=C(Nc1ccccc1)c1ccc([C@@H]2C[C@H]2NCC2CC2)cc1 (racemic) | – | 10.6 | – | IC50 [3]: 1 nM |
| Cc1nnc(NC(=O)c2csc([C@@H]3C[C@H]3NCC3CC3)c2)s1 (racemic) | 26 | – | – | – |
| O=C(NC1CCOCC1)c1csc([C@@H]2C[C@H]2NCC2CC2)c1 (racemic) | 13 | – | – | – |
| O=C(Nc1cccc([C@@H]2C[C@H]2NCC2CC2)c1)c1ccccc1 (racemic) | – | 3.51 | 1800 | – |
| Cc1nnc(NC(=O)c2cccc([C@@H]3C[C@H]3NCC3CC3)c2)s1 | – | – | – | Activity [5]: Non-Toxic; Activity [6]: Non-Toxic; Activity [7]: Non-Toxic |
| O=C(NC1CCC(F)(F)CC1)c1cccc([C@@H]2C[C@H]2NCC2CC2)c1 (racemic) | 26 | – | – | – |
| O=C(Nc1ccc([C@@H]2C[C@H]2NCC2CC2)cc1)c1ccccc1 (racemic) | – | 10.7 | – | IC50 [3]: 1.4 nM |
| O=C(NC1CCOCC1)c1csc([C@@H]2C[C@H]2NCC2CC2)c1 | – | – | – | Activity [8]: 66%; Activity [9]: 62.7%; AUC(0-t) [10]: 1050 ng·h/mL |
| CN(C(=O)c1cccc([C@@H]2C[C@H]2NCC2CC2)c1)c1ccccc1 (racemic) | – | 9.6 | 860 | – |
| Cc1nnc(NC(=O)c2cc([C@@H]3C[C@H]3NCC3CC3)cs2)s1 (racemic) | 15 | – | – | – |
| O=C(NC1CCOCC1)c1cccc([C@@H]2C[C@H]2NCC2CC2)c1 (racemic) | 11 | – | – | – |
| O=C(Nc1ccccc1)c1ccccc1[C@@H]1C[C@H]1NCC1CC1 (racemic) | – | – | > 10000 | – |

Further lines, with some results ahead:

| microsomal CLint at 1 µM [1] [µL/min/mg] | SMILES | fold induction at 24 h, 10 µM [2] | IC50 [4] [nM] | also measured |
| --- | --- | --- | --- | --- |
| 10 | Cc1nnc(NC(=O)c2cccc([C@@H]3C[C@H]3NCC3CC3)c2)s1 (racemic) | – | – | – |
| 101 | O=C(Nc1ccccc1)c1cccc([C@@H]2C[C@H]2NCC2CC2)c1 (racemic) | 1.97 | 82 | – |
| 47 | O=C(Nc1cccnc1)c1cccc([C@@H]2C[C@H]2NCC2CC2)c1 (racemic) | 1.53 | 160 | – |
